This is an account of results in US4605674A, “Substituted acetophenones and compositions containing them” (Hoffmann-La Roche Inc., priority 1979, dated 1986).

The structures appear in SMILES notation. Values after ≈ are worked out from the molar mass of the structure shown. Where two headings read alike, the source gives them in different places.

The LD50 is the dose at which mortality reaches 50%.

The nature of one series: in vivo. Conditions: mouse, DDY mice, single dose. The method, then:
^(1) DDY mice weighing 15-20 g were treated with a single dose of the
compound. Survivors were recorded on day 21.
^(2) Compounds were dissolved in dimethylsulfoxide.
^(3) Compounds were suspended with solution of 0.5% carboxymethyl

A further series has as its system rhinovirus HGP. In words: Inhibition of viral cytopathogenic effect (c.p.e.) of rhinovirus HGP in HeLa cells. To be noted: Enterovirus, HeLa, 48 h, read-out: IC50 against rhinovirus HGP (concentration inhibiting the viral c.p.e. by 50%). Format: cell-based, human rhinoviruses. The protocol: A suspension of HeLa cells (6×10^4) was mixed with rhinovirus HGP (3×10^3 plaque forming units, PFU) and was plated in a microtest plate containing the compounds to be tested serially diluted. The cells were then cultured with Eagle's minimum essential medium containing 2% calf serum, 1% tryptose phosphate broth, 100 μg/ml of streptomycin sulfate and 20 unit/ml of penicillin G. Viral c.p.e. (cytopathogenic effect) was observed by a microscope after 2 days culture at 33° C.
The antiviral activity of the tested compounds is expressed by the concentration inhibiting the viral c.p.e. by 50% when compared to the control culture (IC50).

[1] abbreviates: ip, i.p., dissolved in dimethylsulfoxide, day 21, read-out: LD50 i.p.
[2] abbreviates: po, p.o., suspended in 0.5% carboxymethyl cellulose, day 21, read-out: LD50 p.o.

With `CCOc1cc(OC)cc(O)c1C(=O)/C=C/c1ccc(OC)cc1` [2'-ethoxy-6'-hydroxy-4,4'-dimethoxychalcone], the results for the median lethal dose (LD50) at 504 h in the series “in vivo” (setting [1]) and in “in vivo” (setting [2]) were greater than 500 mg/kg and greater than 1000 mg/kg, respectively. The IC50 in the series with rhinovirus HGP worked out at 0.01 mg/L (≈ 0.0305 µM).
Take `COc1cc(O)c(C(=O)/C=C/c2ccccc2)c(OC)c1` [2'-hydroxy-4',6'-dimethoxychalcone]: the LD50 at 504 h was greater than 1000 mg/kg in the series “in vivo” (setting [1]) and greater than 5000 mg/kg in the series “in vivo” (setting [2]). Moreover, the IC50 in the series with rhinovirus HGP lay within 0.1 to 0.3 mg/L (≈ 0.352 to 1.06 µM).
The matching figures for `CCC(=O)Oc1cc(OC)cc(OC)c1C(=O)/C=C/c1ccc(C)cc1` [2',4'-dimethoxy-4-methyl-6'-(propionyloxy)-chalcone]: greater than 1000 mg/kg, greater than 5000 mg/kg and 0.03 mg/L (≈ 0.0846 µM).
The like results for `COc1cc(O)c(C(=O)/C=C/c2ccc(OC)c(OC)c2)c(OC)c1` [2'-hydroxy-3,4,4',6'-tetramethoxychalcone] were, in that order, greater than 500 mg/kg, greater than 500 mg/kg and 0.1 to 0.3 mg/L (≈ 0.29 to 0.871 µM).
Consider `CCOc1cc(OC)cc(OC(=O)CC)c1C(=O)/C=C/c1ccc(OC)cc1` [2'-ethoxy-4,4'-dimethoxy-6'-(propionyloxy)-chalcone], for which the 50% lethal dose (LD50) at 504 h in “in vivo” (setting [1]) is greater than 1000 mg/kg; in “in vivo” (setting [2]), greater than 5000 mg/kg. Also, the IC50 in the series with rhinovirus HGP is 0.02 to 0.06 mg/L (≈ 0.052 to 0.156 µM).
The like results for `CCC(=O)Oc1cc(OC)cc(OC)c1C(=O)C=Cc1ccc(C)o1` [2',4'-dimethoxy-3-(5-methyl-2-furyl)-6'-(propionyloxy)-acrylophenone] were, in that order, greater than 500 mg/kg, greater than 2000 mg/kg and 0.03 to 0.1 mg/L (≈ 0.0871 to 0.29 µM).
The matching figures for `CCC(=O)Oc1cc(OC)cc(OC)c1C(=O)/C=C/c1ccc(Cl)cc1` [4-chloro-2',4'-dimethoxy-6'-(propionyloxy)-chalcone]: greater than 1000 mg/kg, greater than 5000 mg/kg and 0.1 to 0.3 mg/L (≈ 0.267 to 0.8 µM).
As for `CCC(=O)Oc1cc(OC)cc(OC(C)C)c1C(=O)/C=C/c1ccc(OC)cc1` [2'-isopropoxy-4,4'-dimethoxy-6'-(propionyloxy)chalcone], the 50% lethal dose (LD50) at 504 h was greater than 500 mg/kg in “in vivo” (setting [1]) and greater than 1000 mg/kg in “in vivo” (setting [2]). Further, in the series on rhinovirus HGP, the IC50 lay within 0.01 to 0.03 mg/L (≈ 0.0251 to 0.0753 µM).
The matching figures for `COc1cc(O)c(C(=O)/C=C/c2ccc(N(C)C)cc2)c(OC)c1`: greater than 1000 mg/kg, greater than 5000 mg/kg and 0.02 to 0.06 mg/L (≈ 0.0611 to 0.183 µM).
`CCC(=O)Oc1cc(OC)cc(OC)c1C(=O)C=Cc1cccn1C` [2',4'-dimethoxy-3-(1-methylpyrrol-2-yl)-6'-(propionyloxy)-acrylophenone]: the 50% lethal dose (LD50) at 504 h in the series “in vivo” (setting [1]) is greater than 500 mg/kg; in “in vivo” (setting [2]), greater than 5000 mg/kg. For the same compound, the IC50 in the series with rhinovirus HGP was 0.3 mg/L (≈ 0.874 µM).
The matching figures for `COc1cc(O)c(C(=O)/C=C/c2cccc(OC)c2O)c(OC)c1` [2,2'-dihydroxy-3,4',6'-trimethoxychalcone]: greater than 500 mg/kg, greater than 1000 mg/kg and 0.15 to 0.5 mg/L (≈ 0.454 to 1.51 µM).
The like results for `CCOc1ccc(/C=C/C(=O)c2c(O)cc(OCC)cc2OC)cc1` [4,4'-diethoxy-2'-hydroxy-6'-methoxychalcone] were, in that order, greater than 500 mg/kg, greater than 1000 mg/kg and 0.006 to 0.02 mg/L (≈ 0.0175 to 0.0584 µM).
The matching figures for `COc1cc(O)c(C(=O)/C=C/c2ccc(Cl)cc2)c(OC)c1` [4-chloro-2'-hydroxy-4',6'-dimethoxychalcone]: greater than 1000 mg/kg, greater than 5000 mg/kg and 0.02 to 0.06 mg/L (≈ 0.0627 to 0.188 µM).
Take `COc1ccc(/C=C/C(=O)c2c(OC)cc(OC)cc2OC(=O)c2cccnc2)cc1` [2',4,4'-trimethoxy-6'-(nicotinoyloxy)chalcone]: the 50% lethal dose (LD50) at 504 h in “in vivo” (setting [1]) is greater than 500 mg/kg; in the series “in vivo” (setting [2]), greater than 4000 mg/kg. In addition, the IC50 in the series on rhinovirus HGP lay in the range of 0.01 to 0.025 mg/L (≈ 0.0238 to 0.0596 µM).
`COc1cc(O)c(C(=O)C=Cc2sccc2C)c(OC)c1` [2'-hydroxy-4',6'-dimethoxy-3-(3-methyl-2-thienyl)-acrylophenone]: the 50% lethal dose (LD50) at 504 h was greater than 500 mg/kg in the series “in vivo” (setting [1]) and greater than 1500 mg/kg in the series “in vivo” (setting [2]). Also, the IC50 in the series with rhinovirus HGP came out at 0.1 mg/L (≈ 0.329 µM).
`CCC(=O)Oc1cc(OC)cc(OC)c1C(=O)/C=C/c1ccccc1` [2',4'-dimethoxy-6'-(propionyloxy)-chalcone]: the figures for the 50% lethal dose (LD50) at 504 h in the series “in vivo” (setting [1]) and in the series “in vivo” (setting [2]) were greater than 1000 mg/kg and greater than 5000 mg/kg, respectively. Further, the IC50 in the series on rhinovirus HGP lay within 0.3 to 1 mg/L (≈ 0.881 to 2.94 µM).
The matching figures for `CCCOc1ccc(/C=C/C(=O)c2c(O)cc(OC)cc2OC)cc1` [2'-hydroxy-4',6'-dimethoxy-4-propoxychalcone]: greater than 500 mg/kg, greater than 5000 mg/kg and 0.1 mg/L (≈ 0.292 µM).
The like results for `COc1cc(O)c(C(=O)C=Cc2ccc(C)o2)c(OC)c1` [2'-hydroxy-4',6'-dimethoxy-3-(5-methyl-2-furyl)-acrylophenone] were, in that order, greater than 500 mg/kg, greater than 2000 mg/kg and 0.03 mg/L (≈ 0.104 µM).
